# Data: US11149066B2, “Thrombospondin 1-binding peptide” (DAIICHI SANKYO COMPANY, LIMITED, priority 2016, dated 2021)
# Positions of bridges follow the written chain, without caps; N, C: chain ends. Non-standard residues stand in square brackets, D forms with d. Residues, ends and D or L forms follow the SMILES beside them. 2Nal = N[C@@H](Cc1ccc2ccccc2c1)C(=O)O; Nle = CCCC[C@H](N)C(=O)O
# Assays:
# [1] = target: T1, human TSP1 (Homo sapiens, UniProt P07996); assay: Interaction analysis by SPR (Biacore T200); format: binding; settings: single-cycle kinetics, 25° C., KD from ka and kd
# Procedure: (Test Example 2) Interaction Analysis by SPR
# Interaction analysis by SPR was performed using Biacore T200 (produced by GE Healthcare).
# I. Immobilization of Recombinant-hTSP1
# First, 500 μM NiCl2 was injected over an NTA-Chip (produced by GE Healthcare, BR100532) at a flow rate of 5 μL/min. for 1 minute to thereby activate NTA groups. Then, an EDC/NHS mixture was injected at a flow rate of 10 μL/min. for 7 minutes to thereby activate the carboxyl groups of dextran. Recombinant-hTSP1 was injected at a flow rate of 10 μL/min. for 7 minutes to immobilize the TSP1 on the substrate surfaces with activated NTA and carboxyl groups. Ethanolamine was injected at a flow rate of 10 μL/min. for 7 minutes to thereby deactivate unreacted, activated carboxyl groups.
# The immobilization buffer used was prepared by diluting 10×HBS-P+(produced by GE Healthcare, BR100671) to 1-fold and adding 5 mM CaCl2.
# The reagents EDC/NHS/ethanolamine used were included in the Amine-coupling kit (BR100050) commercially available from GE Healthcare.
# The measurement buffer was prepared based on the following composition profile:
# The measurement was performed in the following steps.
# For the purpose of equilibrating substrate surfaces, the measurement buffer was injected under the following conditions:
# contact time: 60 sec., dissociation time: 120 sec., flow rate: 50 μL/min., temperature: 25° C.
# The injection under the same conditions was repeated five times to ensure equilibration.
# Since Biacore T200 is highly responsive to change in DMSO concentrations, DMSO solutions were sequentially injected at concentrations of 4%, 4.4%, 4.8%, 5.2%, 5.6%, and 6% to correct for DMSO effects.
# The method adopted for sample measurement was a single-cycle kinetics method which is effective for samples showing low dissociative behavior. The advantage of this method is that since sample solutions at different concentration regions are injected in the same cycle, the influence between different cycles in association with low dissociation can be ignored in the analysis.
# A 3-fold diluted series of sample solutions were prepared in five concentrations (100, 33, 11, 3.7 and 1.2 nM), and sequentially injected at a flow rate of 50 μL/min. for 3 minutes in the order from lowest to highest concentration. After the highest concentration of diluted solution was injected, a dissociation time of 20 to 30 minutes was spent.
# Before samples were measured, the measurement buffer was injected alone under the same conditions to establish a baseline.
# The analysis was conducted using the evaluation software provided with Biacore T100 and T200. A DMSO correction curve obtained by solvent correction measurements was applied for the analysis. Kinetics fitting was done on the difference data obtained by subtracting the baseline data from sample measurement data.
# KD values were calculated based on the association rate constant (ka) and dissociation rate constant (kd).
# Target sequence in this assay (P07996 19-1170): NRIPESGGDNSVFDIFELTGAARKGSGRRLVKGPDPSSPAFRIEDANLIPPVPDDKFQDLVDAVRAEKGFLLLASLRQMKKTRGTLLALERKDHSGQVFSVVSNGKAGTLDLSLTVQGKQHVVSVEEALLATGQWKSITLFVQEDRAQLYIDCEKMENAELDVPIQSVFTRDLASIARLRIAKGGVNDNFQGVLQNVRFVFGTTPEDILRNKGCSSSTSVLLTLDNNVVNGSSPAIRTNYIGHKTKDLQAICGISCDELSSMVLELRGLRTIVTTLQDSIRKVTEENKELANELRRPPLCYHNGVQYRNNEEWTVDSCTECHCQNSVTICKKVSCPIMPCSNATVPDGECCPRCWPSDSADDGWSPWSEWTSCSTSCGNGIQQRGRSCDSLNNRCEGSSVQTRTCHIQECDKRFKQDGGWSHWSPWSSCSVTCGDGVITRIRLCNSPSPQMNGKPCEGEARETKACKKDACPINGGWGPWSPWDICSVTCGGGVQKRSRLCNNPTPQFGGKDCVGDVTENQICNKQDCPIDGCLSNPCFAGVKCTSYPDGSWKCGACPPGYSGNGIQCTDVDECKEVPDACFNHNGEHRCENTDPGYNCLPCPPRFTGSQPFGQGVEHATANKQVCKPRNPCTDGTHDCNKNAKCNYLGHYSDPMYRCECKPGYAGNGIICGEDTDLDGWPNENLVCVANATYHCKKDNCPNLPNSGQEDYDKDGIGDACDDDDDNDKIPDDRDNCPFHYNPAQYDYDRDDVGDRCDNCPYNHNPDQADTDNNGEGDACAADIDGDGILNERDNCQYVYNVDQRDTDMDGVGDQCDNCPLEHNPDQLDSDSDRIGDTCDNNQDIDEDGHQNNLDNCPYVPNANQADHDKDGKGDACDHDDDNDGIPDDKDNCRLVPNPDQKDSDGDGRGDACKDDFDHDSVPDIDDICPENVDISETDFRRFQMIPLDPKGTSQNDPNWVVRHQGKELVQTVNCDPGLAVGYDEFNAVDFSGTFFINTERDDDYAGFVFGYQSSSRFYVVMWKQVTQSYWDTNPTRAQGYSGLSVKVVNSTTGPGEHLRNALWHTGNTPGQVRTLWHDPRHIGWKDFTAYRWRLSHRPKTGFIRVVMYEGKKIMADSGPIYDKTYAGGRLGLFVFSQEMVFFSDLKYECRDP
# [2] = tested on: C57BL/6 mice; assay: Blood flow improvement tests (femoral artery/vein ligation and excision, laser Doppler); format: in vivo; settings: after 7 days of surgery; for % change (vs. vehicle): blood flow ratio ischemia/nonischemia; for %, ischemia/nonischemia: blood flow ratio of ischemic limb to non-ischemic limb, laser Doppler
# Source text: (Test Example 3) Blood Flow Improvement Tests
# Seven to nine-week-old male C57BL/6 mice were purchased from Charles River Laboratories Japan Inc., and acclimated over one week by feeding with a FR-2 solid diet (produced by Funabashi Farm Co., Ltd.). The rearing facility switched between light and dark modes in a 12-hour cycle with light turning on at 7 a.m and turning off at 7 p.m. Under isofluorane inhalation anaesthesia, the left thighs of the mice were dissected, and the superficial femoral arteries and veins (from just below the deep femoral arteries to the popliteal artery and vein) were ligated and excised. After animal models were made, the test substances (Compounds 24, 28, 40 to 45, and 58) were each dissolved in a solution of 20 mM lactic acid and 5% (w/v) Lutrol, and intraperitoneally injected into mice once daily.
# (Blood Flow Improvement Test 1)
# Compound 24 (10 mg/kg)-treated group
# (Blood Flow Improvement Test 2)
# Compound 28 (10 mg/kg)-treated group
# (Blood Flow Improvement Test 3)
# Compound 40 (10 mg/kg)-treated group
# Compound 41 (10 mg/kg)-treated group
# (Blood Flow Improvement Test 4)
# Compound 42 (10 mg/kg)-treated group
# Compound 43 (10 mg/kg)-treated group
# Compound 44 (10 mg/kg)-treated group
# Compound 45 (10 mg/kg)-treated group
# (Blood Flow Improvement Test 5)
# Compound 58 (10 mg/kg)-treated group
# Blood flows were measured in ischemic (left) and non-ischemic (right) limbs using a laser Doppler perfusion imager (LDPI; PIM III, Perimed, Inc.). Blood flow values were evaluated by the ratio of ischemic limb flow to non-ischemic limb flow.
# Blood flow values from the mice were the lowest immediately after surgery and then gradually recovered. All of the test substances investigated in the animal models of this study improved blood flow recovery after surgery as compared to vehicle treatment. After 7 days of surgery, the blood flows in the test substance-treated groups were higher than in the vehicle-treated mice.
# [3] = target: T1, human TSP1; assay: Cell adhesion inhibition assay (HUVEC adhesion to TSP1-coated plate); format: cell-based; settings: HUVEC adhesion to human platelet thrombospondin-coated plate, 2.5 hours, CellTiter-Glo; read-out: Cell adhesion IC50
# Procedure, shortened: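 Plates coated overnight at 4 °C with 10 μg/mL human platelet TSP1 in TBS + 2 mM CaCl2, blocked with Lipidure, then preincubated 15–30 min with samples in DMEM/0.5% BSA. HUVECs (10000 cells/well) adhered for 2.5 h at 37 °C; adherent cells quantified by CellTiter-Glo luminescence and IC50 (nM) calculated.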
# Target sequence in this assay (P07996 19-1170 limits assumed): as the sequence (P07996 19-1170) above
SMILES,Kd [1],IC50 [3],% change (vs. vehicle) [2],"%, ischemia/nonischemia [2]"
CC[C@H](C)[C@@H]1NC(=O)[C@H](Cc2ccc3ccccc3c2)NC(=O)CSC[C@@H](C(N)=O)NC(=O)[C@H](C(C)C)NC(=O)[C@H](Cc2c[nH]c3ccccc23)NC(=O)[C@H](CCCCN)NC(=O)[C@H](C(C)C)NC(=O)[C@H](Cc2c[nH]c3ccccc23)NC(=O)[C@H](CC(N)=O)NC(=O)[C@H](CCCNC(=N)N)NC(=O)CNC(=O)[C@H](CO)NC1=O [Compound 24] ({CH2CO}-[2Nal]ISGRNWVKWVC-NH2; thioether N-12),120 pM,–,4.9%,41.20%
CC[C@H](C)[C@@H]1NC(=O)[C@H](Cc2ccccc2)NC(=O)CSC[C@@H](C(N)=O)NC(=O)[C@H](C(C)C)NC(=O)[C@H](Cc2c[nH]c3ccccc23)NC(=O)[C@H](CCCCN)NC(=O)[C@H](C(C)C)NC(=O)[C@H](Cc2c[nH]c3ccccc23)NC(=O)[C@H](CC(N)=O)NC(=O)[C@H](CCCCN)NC(=O)CNC(=O)[C@H](CO)NC1=O [Compound 7] ({CH2CO}-FISGKNWVKWVC-NH2; thioether N-12),120 pM,–,–,–
CC(C)[C@@H]1NC(=O)[C@H](Cc2c[nH]c3ccccc23)NC(=O)[C@H](CCCCN)NC(=O)[C@H](C(C)C)NC(=O)[C@H](Cc2c[nH]c3ccccc23)NC(=O)[C@H](CC(N)=O)NC(=O)[C@H](CCCNC(=N)N)NC(=O)CNC(=O)[C@H](CO)NC(=O)[C@H](CCCNC(=N)N)NC(=O)[C@H](Cc2ccccc2)NC(=O)CSC[C@@H](C(N)=O)NC1=O [Compound 6] ({CH2CO}-FRSGRNWVKWVC-NH2; thioether N-12),440 pM,27300 pM,–,–

# More lines, main results first:
Kd [1],IC50 [3],SMILES,% change (vs. vehicle) [2],"%, ischemia/nonischemia [2]"
440 pM,–,CC[C@H](C)[C@@H]1NC(=O)[C@H](Cc2ccc3ccccc3c2)NC(=O)CSC[C@@H](C(N)=O)NC(=O)[C@H](C(C)C)NC(=O)[C@H](Cc2c[nH]c3ccccc23)NC(=O)[C@H](CCCCN)NC(=O)[C@H](C(C)C)NC(=O)[C@H](Cc2c[nH]c3ccccc23)NC(=O)[C@H](CC(N)=O)NC(=O)[C@H](Cc2c[nH]cn2)NC(=O)CNC(=O)[C@H](CO)NC1=O [Compound 42] ({CH2CO}-[2Nal]ISGHNWVKWVC-NH2; thioether N-12),27.0%,47.40%
91 pM,15900 pM,CCCC[C@@H]1NC(=O)[C@H](Cc2c[nH]c3ccccc23)NC(=O)[C@H](CC(=O)O)NC(=O)[C@H](CCCCN)NC(=O)CNC(=O)[C@H](CO)NC(=O)[C@H]([C@@H](C)CC)NC(=O)[C@H](Cc2ccc3ccccc3c2)NC(=O)CSC[C@@H](C(N)=O)NC(=O)[C@H](C(C)C)NC(=O)[C@H](Cc2c[nH]c3ccccc23)NC(=O)[C@H](CCCNC(=N)N)NC1=O [Compound 58] ({CH2CO}-[2Nal]ISGKDW[Nle]RWVC-NH2; thioether N-12),85.5%,69.00%
130 pM,–,CCCC[C@@H]1NC(=O)[C@H](Cc2c[nH]c3ccccc23)NC(=O)[C@H](CC(=O)O)NC(=O)[C@H](CCCNC(=N)N)NC(=O)CNC(=O)[C@H](CO)NC(=O)[C@H]([C@@H](C)CC)NC(=O)[C@H](Cc2ccc3ccccc3c2)NC(=O)CSC[C@@H](C(N)=O)NC(=O)[C@H](C(C)C)NC(=O)[C@H](Cc2c[nH]c3ccccc23)NC(=O)[C@H](CCCCN)NC1=O [Compound 45] ({CH2CO}-[2Nal]ISGRDW[Nle]KWVC-NH2; thioether N-12),76.0%,65.70%
130 pM,9200 pM,CC[C@H](C)[C@@H]1NC(=O)[C@H](Cc2ccc3ccccc3c2)NC(=O)CSC[C@@H](C(N)=O)NC(=O)[C@H](C(C)C)NC(=O)[C@H](Cc2c[nH]c3ccccc23)NC(=O)[C@H](CCCCN)NC(=O)[C@H](C(C)C)NC(=O)[C@H](Cc2c[nH]c3ccccc23)NC(=O)[C@H](CC(N)=O)NC(=O)[C@H](CCCCN)NC(=O)CNC(=O)[C@H](CO)NC1=O [Compound 43] ({CH2CO}-[2Nal]ISGKNWVKWVC-NH2; thioether N-12),30.9%,48.86%
